Experiment: Superoxide scavenging activity (xanthine oxidase / cytochrome c reduction)
Assay type: biochemical
Description: Method 7: Method for Determination of Superoxide Scavenging Activity. The enzymatic system, which uses xanthine oxidase (a purified enzyme preparation produced by “Sigma”), was used to generate superoxide anions in high yield and in a controlled fashion. The conversion of xanthine to […] by this enzyme generates amounts of superoxide anions and reduction of ferricytochrome c to ferrocytochrome c was used as a sensitive measure of superoxide levels. The measurements of ferrocytochrome c level (550 nm), when tested bioactive compositions were added to the reaction system, allow for determination of their superoxide scavenging activity. The final concentrations per well were for cytochrome c 75 μM, xanthine 425 μm/L, and xanthine oxidase 10 mU/ml.

O=C(/C=C/c1ccc(O)c(O)c1)O[C@H](Cc1ccc(O)c(O)c1)C(=O)O [rosmarinic acid]
ICR50 of positive control: 26.5 µg/mL
